Consider 81 compounds from the METLIN SMRT retention time set (Domingo-Almenara et al. 2019).

This data set can be described thus: gradient 5% acetonitrile 3 min, to 50% in 2 min, to 85% in 15 min, held 3 min, 100 µL/min. The settings on record: column: Zorbax Extend-C18 2.1 x 50 mm; eluents: water / acetonitrile, 0.1% formic acid. The method, boiled down:
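Standards, all pure, were combined into mixtures of ~100 molecules and run at 100 μL/min on a Zorbax Extend-C18 column (2.1 × 50 mm, 1.8 μm) with water and acetonitrile, each containing 0.1% formic acid. A coupled quadrupole time-of-flight mass spectrometer operated in positive and negative ionization mode. Retention time values come from computationally picked adduct peaks, each inspected manually.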
For the compound `Cc1ccc(S(=O)(=O)CCc2noc(-c3cccc4[nH]ccc34)n2)cc1`, the RP-LC retention time was 887 s. The figure for `Cc1oc(-c2[nH]ncc2C(=O)N2CCCCC2)cc1S(=O)(=O)Nc1ccc(F)cc1` is 738 s.

`O=C(COc1ccccc1F)Nc1nnc(C2CCCCC2)o1`: the RP-LC retention time was found to be 766 s. The figure for `COCCNC(=O)CSc1nccc2c1ccn2Cc1ccc(F)cc1` is 668 s.

On to `O=C(CC1COc2ccccc2NC1=O)NCCc1ccc(Cl)cc1` (stereo unspecified), for which the RP-LC retention time was determined as 910 s.

With `CCc1ccc(C(C)NC(=O)c2cccc(C3CCCN(C(=O)NC)C3)c2)cc1` (stereo unspecified), the RP-LC retention time was 888 s.

In turn, `CC1(C(=O)Nc2cccc(F)c2)CCCCC(=O)N1` (stereo unspecified) yielded an RP-LC retention time of 694 s. The figure for `Cc1noc(C)c1CCC(=O)N1CCCn2ccnc2C1C1CCCC1` (stereo unspecified) is 613 s. The figure for `O=C(Cn1ccc2c(SCc3ccccc3)nccc21)N1CCN(c2ccccn2)CC1` is 577 s.

For the compound `CC1CCN(C(=O)C2c3ccccc3CCN2CC(=O)Nc2ccc(F)cc2Cl)CC1` (stereo unspecified), the RP-LC retention time came out at 936 s.

Consider `CCCC(NC(=O)c1cc(OC)c(OC)c(OC)c1)C(=O)Nc1nc2ccccc2[nH]1` (stereo unspecified), for which the RP-LC retention time is 688 s. The figure for `Cc1cc(S(=O)(=O)N2CCC(n3c(-c4ccoc4)nc4cccnc43)C2)ccc1F` (stereo unspecified) is 827 s; for `CCn1cc(CCN2CCN(C(=O)C3CCCCC3)CC2)c2cccnc21` it is 613 s; for `Cc1ccc(-c2ccc(-n3nc(C)c(S(=O)(=O)Nc4ccc(F)cc4)c3C)nn2)cc1` it is 1070 s.

As for `Cc1cccc(CNS(=O)(=O)c2cn(CC(C)C)c3ncccc23)c1`, the RP-LC retention time was determined as 993 s. The figure for `Nc1nc(N2CCOCC2)ncc1C(=O)NCc1ccccc1` is 609 s.

The compound `COc1ccc(Cl)cc1NC(=O)C1(c2ccccc2)CCOCC1` registered an RP-LC retention time of 1010 s. With `Cc1cc(=O)n(CC(=O)NCc2ccc3c(c2)OCO3)c(N2CCOCC2)n1`, the RP-LC retention time amounted to 622 s.

Turning to `Cc1ccc(CNC(=O)CCc2c(C)nn(-c3cc(N4CCOCC4)ncn3)c2C)o1`, the RP-LC retention time is 700 s. `COc1ccc(-c2nc(-c3ccc(NS(C)(=O)=O)cc3)no2)c(OC)c1` gave an RP-LC retention time of 885 s. The figure for `Cc1ccc2[nH]cc(CCN3CC(C(=O)Nc4ccc(Cl)cc4)CC3=O)c2c1` (stereo unspecified) is 882 s; for `NC(=O)c1cccn1Cc1ccc(Cl)cc1` it is 778 s. The figure for `COCCCNC(=O)c1ccc(-n2nc(C)c3c2CCCC3=O)cc1` is 660 s.

`COc1ccccc1NC(=O)Cn1nc2c(Oc3cc(C)cc(C)c3)nccn2c1=O` returned an RP-LC retention time of 957 s. The figure for `O=S(=O)(c1c[nH]c2ncccc12)N1CCN(c2ccccc2)CC1` is 805 s; for `Cc1cccc(OCc2nc(-c3ccc4c(c3)nnn4CCC(=O)N3CCCC3)no2)c1` it is 923 s.

`Cc1nccn1CCNC(=O)c1cc(-c2ccccc2)on1` yielded an RP-LC retention time of 569 s.

Turning to `CCCC(=O)N1CCCC(c2nc(CNC(=O)C3CCC3)cs2)C1` (stereo unspecified), the RP-LC retention time worked out at 694 s. The figure for `CC1CCCCN1CCCNC(=O)C1CCN(c2nc3cccnc3s2)CC1` (stereo unspecified) is 587 s; for `COCc1noc(C2CCCCN2CC(=O)Nc2nccs2)n1` (stereo unspecified) it is 720 s; for `COc1ccc(N2C(=O)CCS2(=O)=O)cc1S(=O)(=O)NCCc1c[nH]c2ccccc12` it is 792 s. For `CC(=O)Nc1ccc2nc(NC(=O)CCOc3ccccc3)sc2c1`, the RP-LC retention time was determined as 708 s. For `CCOc1ccccc1CN1CCO[C@@H](COC)[C@@H]1c1ccccc1`, the RP-LC retention time stood at 699 s. The figure for `COc1ccc(CCNc2ncc(C(=O)O)c(C(C)C)n2)cc1OC` is 820 s; for `CNCc1ccc(-c2cc(Cl)ccc2Cl)o1` it is 653 s.

`c1ccc(-c2nc(-c3ccc(OC4CNC4)cc3)no2)cc1` returned an RP-LC retention time of 686 s. The figure for `CCCSCCCNC(=O)COc1ccccc1-c1nnc(-c2ccccc2)o1` is 1160 s. In the case of `COC(=O)C1=C(C)N(Cc2ccccc2)C(=O)NC1c1ccccc1[N+](=O)[O-]` (stereo unspecified), the RP-LC retention time amounted to 856 s. The figure for `O=C(Nc1ccc(N2CCN(C3CCCCC3)C2=O)nc1)c1ccc(F)cc1` is 926 s. The figure for `Cn1nc(C2CCCN(C(=O)Nc3ccc4c(c3)OCCO4)C2)n(C2CCCC2)c1=O` (stereo unspecified) is 718 s; for `CCOC(=O)Cn1c(C2CC(=O)N(c3ccc(F)cc3)C2)nc2ccccc21` (stereo unspecified) it is 766 s. `O=C(C1COc2ccccc2O1)N1CC(n2ccnc2)C1` (stereo unspecified) displayed an RP-LC retention time of 594 s. The figure for `CC(=O)N1CCc2cc(N3CC(C(=O)NCc4ccc5c(c4)OCO5)CC3=O)ccc21` (stereo unspecified) is 659 s; for `Cc1ccccc1-c1cn2ccn(-c3ccc4c(c3)CCC4)c(=O)c2n1` it is 962 s; for `COc1ccc(OC)c(S(=O)(=O)Cc2nc(-c3ccc(C)cc3)no2)c1` it is 1000 s.

As to `Cn1cc(-c2nc(C(=O)Nc3cccc(C#N)c3)cs2)c2cccnc21`, the RP-LC retention time came out at 946 s. The figure for `O=C(C1=CN(c2ccc(F)c(Cl)c2)c2ccccc2S1(=O)=O)N1CCOCC1` is 786 s. The figure for `CC1(C)CC(=O)c2cn(-c3ccccc3)c(=O)c(C(=O)Nc3ccc4c(c3)OCCO4)c2C1` is 976 s; for `COc1ccc(S(=O)(=O)NCc2cccnc2-c2ccc(C)cc2)cc1` it is 679 s. The figure for `O=S(=O)(c1cccn2cnnc12)N(Cc1ccc(F)cc1)c1ccc(F)cc1` is 834 s; for `O=S(=O)(Cc1ccccc1Cl)N1CCc2nc(-c3ccc(F)cc3)ncc2C1` it is 1100 s; for `CSc1ccc(CNC(=O)c2cn3c(n2)COCC3)cc1` it is 663 s. On to `c1cc(-c2noc(C3CCC3)n2)cc(N2CCOCC2)n1`, for which the RP-LC retention time is 804 s. The figure for `Cc1sc(-c2cc(C(F)(F)F)on2)cc1S(=O)(=O)N1CCCc2ccccc21` is 1300 s; for `NC(=O)C1CCN(C(=O)CCCc2nc3cccnc3n2Cc2ccc(F)cc2)CC1` it is 602 s; for `Cc1cc(NC(=O)c2cn(Cc3cccc(F)c3)nc2OCc2cccc(F)c2)no1` it is 1040 s. Consider `Cc1ccc(N2CCC(N)C2=O)cc1C` (stereo unspecified), for which the RP-LC retention time amounted to 584 s. In the case of `C[C@@H]1CC[C@H]2[C@H](C)[C@H]3CC[C@@]4(O)[C@@H]5CC(=O)[C@H]6CC(=O)CC[C@]6(C)[C@H]5C[C@H]4[C@@H]3CN2C1`, the RP-LC retention time came to 636 s. For the compound `Cc1cc(Cl)ccc1NC(=O)Cn1c(C)nc2onc(C)c2c1=O`, the RP-LC retention time was 818 s. Take `Cc1cc(C)n(CC(=O)N2CCCn3ccnc3C2c2cnn(C)c2)n1` (stereo unspecified): the RP-LC retention time was found to be 556 s. The figure for `CC(C)C(=O)Nc1ccc2nc(N3CCN(Cc4ccccc4F)CC3)cc(C(=O)O)c2c1` is 585 s; for `Cc1ccccc1CC(=O)N1CCc2cc(-c3ccno3)ccc21` it is 1020 s. The figure for `Cc1nc(CC(=O)Nc2ccc(Cl)cc2F)cs1` is 838 s; for `Cc1ccc(CN2C(=O)COC[C@H]2C(=O)NCc2ccco2)cc1` it is 737 s. The figure for `Cn1ccc2cc(S(=O)(=O)N3CCCC(C(=O)NCCN4CCCCCC4)C3)ccc21` (stereo unspecified) is 668 s; for `Cc1sc2cc(C(=O)N3CCN(c4ccccn4)CC3)[nH]c2c1CN1CCCC1` it is 558 s; for `CS(=O)(=O)Nc1ccc(-c2noc(CNC(=O)Cc3ccccc3)n2)cc1` it is 722 s.

With `Cc1ccc(S(=O)(=O)NCCn2ncccc2=O)s1`, the RP-LC retention time stood at 637 s. The figure for `CCc1ccccc1NC(=O)Cn1nc2c(Oc3cc(C)cc(C)c3)nccn2c1=O` is 946 s. The figure for `Cc1ccc(-c2nnc(CC(=O)NCCC(C)C)o2)cc1` is 829 s; for `Cn1c(=O)c(N2CCC(NC(=O)Nc3cccc(C(F)(F)F)c3)CC2)nc2ccccc21` it is 1010 s. Regarding `Cc1ccc(NC(=O)C2CCN(S(=O)(=O)c3cc(-c4noc(C5CC5)n4)ccc3C)CC2)nc1`, the RP-LC retention time was 868 s.

Compound `O=c1ccn(-c2cccc(F)c2)nc1-c1nc(-c2cccc(Cl)c2)no1` displayed an RP-LC retention time of 992 s. The figure for `Cc1ccc2c(=O)c(C(=O)N3CCCCC3)cn(CC(=O)Nc3ccccc3)c2n1` is 713 s. The figure for `COc1ccc(NC(=O)C2CC(=O)N(c3ccc4oc(C)nc4c3)C2)cc1Cl` (stereo unspecified) is 742 s; for `CCCNC(=O)N1CCC(N2CCN(Cc3ccccc3)C(=O)C2=O)CC1` it is 653 s. The figure for `Cc1cccc2nc(-c3c(F)cccc3Cl)c(Nc3ccc4c(c3)OCCO4)n12` is 678 s; for `Cc1ccc2c(Nc3ccc(F)cc3C)c(-c3nc(C)no3)cnc2n1` it is 756 s; for `Cc1scc2nc(C(=O)N3CCN(C4CCCC4)CC3)nc(N3CCCC3)c12` it is 550 s. Regarding `Cc1ccc(C)c(S(=O)(=O)NCC2CN(C)CC23CCCCC3)c1` (stereo unspecified), the RP-LC retention time was 704 s. `Cc1ccc2nc(C(=O)NCc3ccccc3Cl)cn2c1` displayed an RP-LC retention time of 718 s.
